{"source": "patent US8946160B2", "about": "“Nitric oxide amino acid esters for improving vascular circulation, and prophylaxis or treatment of a condition associated with impaired blood circulation” (Oral Delivery Technology Ltd., priority 2010, dated 2015)", "origin": "cited, not measured here"}
{"molecule": "O=[N+]([O-])OCC(CO[N+](=O)[O-])O[N+](=O)[O-]", "note": "[nitroglycerin]", "values": [{"measurement": "maximum shelf life of a product containing nitroglycerin", "value": "about six"}]}
